Consider 13 compounds from patent publication US20250236609A1, “VPS34 INHIBITORS AND METHODS OF USE THEREOF” (Deciphera Pharmaceuticals, LLC, priority 2023, published 2025).

In one assay the target is VPS34 (Homo sapiens (Human), UniProt Q8NEB9). The assay is described as follows: Biochemical Assay for VPS34 (ADP-Glo kinase activity assay). Particulars: 25 nM VPS34, 1 mM ATP, 1-hour incubation at 37° C.; read-out: VPS34 (Inhibition of biochemical activity of VPS34, IC50). Here is the method: Activity of VPS34 kinase was determined using an ADP-Glo kinase activity assay (Promega Corp). Assays were conducted in 384-well plates (5 μL assay volume) using 25 nM VPS34 (ThermoFisher Scientific), […] PI:3PS Lipid Kinase Substrate (Promega Corp.), and 1 mM ATP in kinase buffer. Inhibition of VPS34 was measured by adding serial diluted test compound (final assay concentration of 0.1% DMSO) followed by a 1-hour incubation at 37° C. ADP-Glo reagent was then added ([…]) followed by a 40 min incubation at rt. Kinase detection reagent was then added ([…]) and followed by a 60 min incubation at rt. Luminescence was then detected. The RLU at each compound concentration of was converted to percent inhibition using controls (i.e., reaction with no test compound and reaction with a known inhibitor) and IC50 values were calculated by fitting a four-parameter sigmoidal curve to the data using GeneData Screener software.
VPS34 Protein Sequence (Full Length with GST Tag)
On the technique in general: In ADP-Glo the light output rises with the ADP produced.

For assay [1], the target named is PI3K (p110α (E542K)/p85α) (Homo sapiens (Human), UniProt P42336, E542K). Description: Lipid kinase selectivity panel (Reaction Biology). The class given is biochemical. Particulars: 1 μM compound, single dose duplicates, 10 μM ATP; read-out: Percent inhibition relative to DMSO control, PI3K (p110α (E542K)/p85α). Here is the method:
(§1) The compounds of the present invention were tested in a standard lipid kinase selectivity panel: 16 other lipid kinases (Reaction Biology, Malvern, PA, USA), under conditions of non-disclosure, non-dissemination, and non-use. In brief, compounds (see Table 2) were tested at in single dose duplicates at 1 μM against lipid kinases, including PI3Kα, PI3Kβ, and PI3Kδ, and reactions were carried out at 10 μM ATP.

Assay [2] concerns the target PI3K (p110α (E545K)/p85α) (Homo sapiens (Human), UniProt P42336, E545K). Description: Lipid kinase selectivity panel (Reaction Biology). The class given is biochemical. Particulars: 1 μM compound, single dose duplicates, 10 μM ATP; read-out: Percent inhibition relative to DMSO control, PI3K (p110α (E545K)/p85α). Here is the method:
as §1

Assay [3] has as its target PI3K (p110α (H1047R)/p85α) (Homo sapiens (Human), UniProt P42336, H1047R). Description: Lipid kinase selectivity panel (Reaction Biology). Particulars: 1 μM compound, single dose duplicates, 10 μM ATP; read-out: Percent inhibition relative to DMSO control, PI3K (p110α (H1047R)/p85α). The class given is biochemical. As for the experimental part:
as §1

The next assay deals with PI3K (p110α/p65α) (Homo sapiens (Human), UniProt P42336). The assay is described as follows: Lipid kinase selectivity panel (Reaction Biology). To be noted: 1 μM compound, single dose duplicates, 10 μM ATP; read-out: Percent inhibition relative to DMSO control, PI3K (p110α/p65α). The class given is biochemical. As for the experimental part:
as §1

For the next assay, the target named is PI3KC2α (Homo sapiens (Human), UniProt O00443). The assay is described as follows: Lipid kinase selectivity panel (Reaction Biology). The class given is biochemical. Particulars: 1 μM compound, single dose duplicates, 10 μM ATP; read-out: Percent inhibition relative to DMSO control, PI3KC2α. Here is the method: as §1
PI3KC2α, sequence (O00443 whole entry, species assumed): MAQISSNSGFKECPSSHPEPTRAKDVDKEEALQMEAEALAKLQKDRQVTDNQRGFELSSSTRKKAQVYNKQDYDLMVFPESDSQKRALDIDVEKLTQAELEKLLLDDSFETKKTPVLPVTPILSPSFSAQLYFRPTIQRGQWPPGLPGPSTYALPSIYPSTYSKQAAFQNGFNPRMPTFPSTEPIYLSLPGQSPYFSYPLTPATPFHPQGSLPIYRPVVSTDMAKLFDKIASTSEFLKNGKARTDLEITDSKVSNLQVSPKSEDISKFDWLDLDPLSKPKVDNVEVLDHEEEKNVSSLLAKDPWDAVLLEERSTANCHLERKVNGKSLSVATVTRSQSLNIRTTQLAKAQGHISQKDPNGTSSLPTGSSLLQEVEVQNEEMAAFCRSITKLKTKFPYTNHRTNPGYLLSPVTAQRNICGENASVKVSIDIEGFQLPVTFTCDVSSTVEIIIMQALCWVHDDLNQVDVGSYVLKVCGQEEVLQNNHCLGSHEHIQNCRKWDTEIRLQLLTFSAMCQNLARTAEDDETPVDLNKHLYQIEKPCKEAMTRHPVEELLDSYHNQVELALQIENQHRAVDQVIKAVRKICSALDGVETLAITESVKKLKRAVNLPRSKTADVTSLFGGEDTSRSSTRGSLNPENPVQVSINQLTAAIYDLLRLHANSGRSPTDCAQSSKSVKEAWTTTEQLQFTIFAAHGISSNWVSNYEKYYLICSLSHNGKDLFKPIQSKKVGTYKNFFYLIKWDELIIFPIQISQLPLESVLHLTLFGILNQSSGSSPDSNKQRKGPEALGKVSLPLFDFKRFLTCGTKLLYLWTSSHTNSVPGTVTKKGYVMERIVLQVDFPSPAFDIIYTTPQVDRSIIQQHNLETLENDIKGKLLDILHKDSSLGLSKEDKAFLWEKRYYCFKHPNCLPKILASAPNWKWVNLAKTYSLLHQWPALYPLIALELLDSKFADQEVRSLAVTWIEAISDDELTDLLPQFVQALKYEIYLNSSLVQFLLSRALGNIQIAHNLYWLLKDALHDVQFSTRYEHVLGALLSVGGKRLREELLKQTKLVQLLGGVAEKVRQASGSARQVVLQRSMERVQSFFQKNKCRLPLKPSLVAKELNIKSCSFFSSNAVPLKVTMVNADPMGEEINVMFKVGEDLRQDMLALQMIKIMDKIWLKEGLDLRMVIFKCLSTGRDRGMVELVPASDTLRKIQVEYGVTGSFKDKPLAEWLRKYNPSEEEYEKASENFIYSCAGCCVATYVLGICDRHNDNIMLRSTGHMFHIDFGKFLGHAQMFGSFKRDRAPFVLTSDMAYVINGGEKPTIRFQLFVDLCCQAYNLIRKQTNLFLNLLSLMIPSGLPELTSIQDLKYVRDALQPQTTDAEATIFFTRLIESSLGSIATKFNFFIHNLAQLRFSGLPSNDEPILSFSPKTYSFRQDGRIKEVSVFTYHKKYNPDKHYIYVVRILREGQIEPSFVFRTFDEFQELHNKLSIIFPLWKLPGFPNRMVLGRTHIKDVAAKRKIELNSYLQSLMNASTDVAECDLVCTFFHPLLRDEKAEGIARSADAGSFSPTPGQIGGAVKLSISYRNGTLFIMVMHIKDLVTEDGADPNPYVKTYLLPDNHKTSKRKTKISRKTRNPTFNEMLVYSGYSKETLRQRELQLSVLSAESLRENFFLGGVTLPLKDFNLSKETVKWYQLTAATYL
For a further assay, the target named is PI3Kb (p110β/p85α) (Homo sapiens (Human), UniProt P42338). Description: Lipid kinase selectivity panel (Reaction Biology). The class given is biochemical. To be noted: 1 μM compound, single dose duplicates, 10 μM ATP; read-out: Percent inhibition relative to DMSO control, PI3Kb (p110β/p85α). As for the experimental part: as §1
The next assay deals with PI3Kd (p110δ/p85α) (Homo sapiens (Human), UniProt O00329). The assay is described as follows: Lipid kinase selectivity panel (Reaction Biology). The class given is biochemical. Particulars: 1 μM compound, single dose duplicates, 10 μM ATP; read-out: Percent inhibition relative to DMSO control, PI3Kd (p110δ/p85α). As for the experimental part: as §1
PI3Kd (p110δ/p85α), sequence (O00329 whole entry, species assumed): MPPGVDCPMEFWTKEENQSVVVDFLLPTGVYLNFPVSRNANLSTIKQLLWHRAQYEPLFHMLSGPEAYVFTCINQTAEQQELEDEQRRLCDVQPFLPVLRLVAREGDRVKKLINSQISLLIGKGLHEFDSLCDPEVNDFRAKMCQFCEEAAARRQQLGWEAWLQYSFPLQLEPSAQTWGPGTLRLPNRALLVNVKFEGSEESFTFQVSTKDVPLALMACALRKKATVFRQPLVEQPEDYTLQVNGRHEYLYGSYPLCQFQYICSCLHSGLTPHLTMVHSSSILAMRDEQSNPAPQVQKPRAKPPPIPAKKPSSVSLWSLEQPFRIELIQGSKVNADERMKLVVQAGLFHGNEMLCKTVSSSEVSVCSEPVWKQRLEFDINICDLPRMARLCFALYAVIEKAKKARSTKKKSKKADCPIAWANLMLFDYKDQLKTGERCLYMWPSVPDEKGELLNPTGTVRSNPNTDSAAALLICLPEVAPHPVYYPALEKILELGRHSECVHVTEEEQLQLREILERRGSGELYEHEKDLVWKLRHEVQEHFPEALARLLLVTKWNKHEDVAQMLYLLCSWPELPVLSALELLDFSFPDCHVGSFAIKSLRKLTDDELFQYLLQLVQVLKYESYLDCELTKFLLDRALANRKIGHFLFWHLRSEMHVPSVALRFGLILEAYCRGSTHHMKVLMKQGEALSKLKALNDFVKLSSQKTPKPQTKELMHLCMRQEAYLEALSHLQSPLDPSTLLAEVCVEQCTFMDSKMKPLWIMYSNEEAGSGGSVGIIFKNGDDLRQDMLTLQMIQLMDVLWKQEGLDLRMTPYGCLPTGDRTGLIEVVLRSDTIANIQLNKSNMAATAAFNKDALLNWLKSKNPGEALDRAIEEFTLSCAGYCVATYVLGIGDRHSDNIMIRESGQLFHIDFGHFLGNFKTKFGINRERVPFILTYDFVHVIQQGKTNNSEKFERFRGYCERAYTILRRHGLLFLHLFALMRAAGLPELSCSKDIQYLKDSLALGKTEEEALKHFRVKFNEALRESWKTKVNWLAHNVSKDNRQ
PI3Kd (p110δ/p85α), sequence (P27986 whole entry partner, species assumed): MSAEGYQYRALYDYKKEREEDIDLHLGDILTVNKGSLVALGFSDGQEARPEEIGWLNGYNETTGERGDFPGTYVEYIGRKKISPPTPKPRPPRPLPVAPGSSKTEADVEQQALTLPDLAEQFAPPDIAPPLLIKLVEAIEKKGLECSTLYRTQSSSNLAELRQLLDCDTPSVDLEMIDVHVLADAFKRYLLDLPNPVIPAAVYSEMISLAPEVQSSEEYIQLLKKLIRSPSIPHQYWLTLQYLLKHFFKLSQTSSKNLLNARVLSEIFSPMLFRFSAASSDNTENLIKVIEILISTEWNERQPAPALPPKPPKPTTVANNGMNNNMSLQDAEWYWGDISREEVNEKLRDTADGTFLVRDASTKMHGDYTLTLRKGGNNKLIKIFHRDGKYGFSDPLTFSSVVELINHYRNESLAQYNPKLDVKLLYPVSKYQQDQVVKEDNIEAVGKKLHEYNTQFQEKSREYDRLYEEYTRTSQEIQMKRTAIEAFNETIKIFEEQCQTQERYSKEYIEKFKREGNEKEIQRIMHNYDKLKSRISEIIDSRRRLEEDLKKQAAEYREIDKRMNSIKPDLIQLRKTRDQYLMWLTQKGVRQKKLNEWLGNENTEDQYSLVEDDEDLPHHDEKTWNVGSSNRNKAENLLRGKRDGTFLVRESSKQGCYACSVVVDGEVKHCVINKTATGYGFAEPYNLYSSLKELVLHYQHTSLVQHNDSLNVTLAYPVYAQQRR
In a further assay the target is PI3Kg (p110γ) (Homo sapiens (Human), UniProt P48736). The assay is described as follows: Lipid kinase selectivity panel (Reaction Biology). The class given is biochemical. To be noted: 1 μM compound, single dose duplicates, 10 μM ATP; read-out: Percent inhibition relative to DMSO control, PI3Kg (p110γ). As for the experimental part:
as §1

In another assay the target is PI3Kα (p110α/p85α) (Homo sapiens (Human), UniProt P42336). The assay is described as follows: Lipid kinase selectivity panel (Reaction Biology). The class given is biochemical. To be noted: 1 μM compound, single dose duplicates, 10 μM ATP; read-out: Percent inhibition relative to DMSO control, PI3Kα (p110α/p85α). As for the experimental part: as §1

PI3Kg (p110γ), sequence (P48736 whole entry, species assumed): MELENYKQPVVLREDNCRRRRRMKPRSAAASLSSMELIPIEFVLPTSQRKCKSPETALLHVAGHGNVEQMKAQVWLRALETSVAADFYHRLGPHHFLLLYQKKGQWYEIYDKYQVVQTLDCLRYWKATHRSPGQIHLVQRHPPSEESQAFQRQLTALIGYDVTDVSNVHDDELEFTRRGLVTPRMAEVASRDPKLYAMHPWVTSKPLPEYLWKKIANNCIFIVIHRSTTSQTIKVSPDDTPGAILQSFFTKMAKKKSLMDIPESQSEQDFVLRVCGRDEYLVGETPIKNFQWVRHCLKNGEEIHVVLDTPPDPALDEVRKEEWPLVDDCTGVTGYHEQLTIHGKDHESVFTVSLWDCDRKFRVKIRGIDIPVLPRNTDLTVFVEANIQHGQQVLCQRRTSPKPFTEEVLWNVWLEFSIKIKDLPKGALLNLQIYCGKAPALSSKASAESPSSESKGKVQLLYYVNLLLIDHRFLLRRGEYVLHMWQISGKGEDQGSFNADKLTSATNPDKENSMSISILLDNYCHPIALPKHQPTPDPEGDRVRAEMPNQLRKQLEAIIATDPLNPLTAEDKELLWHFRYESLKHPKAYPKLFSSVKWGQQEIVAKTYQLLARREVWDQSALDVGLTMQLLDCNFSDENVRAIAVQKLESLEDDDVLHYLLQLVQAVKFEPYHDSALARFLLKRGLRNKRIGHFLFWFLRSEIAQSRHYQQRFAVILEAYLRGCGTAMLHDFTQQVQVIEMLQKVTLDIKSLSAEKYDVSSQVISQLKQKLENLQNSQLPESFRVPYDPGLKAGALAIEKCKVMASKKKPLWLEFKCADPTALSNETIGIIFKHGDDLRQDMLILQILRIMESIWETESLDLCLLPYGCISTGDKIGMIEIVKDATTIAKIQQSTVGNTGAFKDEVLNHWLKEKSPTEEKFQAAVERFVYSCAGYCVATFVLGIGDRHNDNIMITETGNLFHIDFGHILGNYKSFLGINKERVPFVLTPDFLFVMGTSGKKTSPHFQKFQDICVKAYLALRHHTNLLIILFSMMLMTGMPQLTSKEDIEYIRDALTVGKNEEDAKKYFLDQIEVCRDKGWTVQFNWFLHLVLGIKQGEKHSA

For the compound `COC(=O)Nc1cc(-c2cc(N3CCCC[C@@H]3C(F)(F)F)[nH]c(=O)c2)c(C)cn1` [Example 1, methyl (R)-(5-methyl-2′-oxo-6′-(2-(trifluoromethyl)piperidin-1-yl)-1′,2′-dihydro-[4,4′-bipyridin]-2-yl)carbamate], at VPS34, the IC50 is at most 100 nM. In addition, the inhibition at 1 µM in assay [1] was 4%; in assay [2], 15%; in assay [3] it was 10%; on PI3K (p110α/p65α), 5%; on PI3KC2α, -1%; on PI3Kb (p110β/p85α), 13%. For the same compound, the inhibition at 1 µM was found to be 9% at PI3Kd (p110δ/p85α), 12% on PI3Kg (p110γ) and 22% on PI3Kα (p110α/p85α).

Consider `COC(=O)Nc1cc(-c2cc(-c3cccnc3C(F)(F)F)[nH]c(=O)c2)c(F)cn1` [Example 5], for which, on VPS34, the IC50 was 100 to 500 nM. The inhibition at 1 µM was 32% in [1]; 32% in [2]; 35% in [3]; 15% at PI3K (p110α/p65α); 3% at PI3KC2α; -6% at PI3Kb (p110β/p85α). Also, the figures for the inhibition at 1 µM at PI3Kd (p110δ/p85α), at PI3Kg (p110γ) and on PI3Kα (p110α/p85α) were 58%, 23% and 17%, respectively.

Consider `COC(=O)Nc1ncc(C)c(-c2cc(-c3cccnc3C(F)(F)F)[nH]c(=O)c2)n1` [Example 6], for which the IC50 on VPS34 is 500 to 1000 nM. Further, the inhibition at 1 µM in assay [1] is 4%; in [2], 3%; in assay [3] it was 19%; on PI3K (p110α/p65α), -26%; at PI3KC2α it was -3%; on PI3Kb (p110β/p85α), -14%. Moreover, the inhibition at 1 µM was -2% at PI3Kd (p110δ/p85α), 5% at PI3Kg (p110γ) and -2% at PI3Kα (p110α/p85α).

For the compound `CNC(=O)Nc1cc(-c2cc(N3CCCC[C@@H]3C(F)(F)F)[nH]c(=O)c2)c(C)cn1` [Example 10], on VPS34, the half-inhibitory concentration (IC50) is 100 to 500 nM. For the same compound, the inhibition at 1 µM is 0% in [1]; 3% in assay [2]; -3% in assay [3]; -23% on PI3K (p110α/p65α); 0% at PI3KC2α; -12% on PI3Kb (p110β/p85α). Also, the inhibition at 1 µM was 1% at PI3Kd (p110δ/p85α), -16% on PI3Kg (p110γ) and -3% at PI3Kα (p110α/p85α).

As for `COC(=O)Nc1cc(-c2cc(N3CCCC[C@@H]3C(F)(F)F)[nH]c(=O)c2)c(N)cn1` [Example 14], the IC50 at VPS34 was at most 100 nM. Further, the inhibition at 1 µM is -5% in assay [1]; 3% in assay [2]; 0% in assay [3]; -7% at PI3K (p110α/p65α); -1% at PI3KC2α; -9% on PI3Kb (p110β/p85α). In addition, the inhibition at 1 µM was -2% at PI3Kd (p110δ/p85α), 11% at PI3Kg (p110γ) and -3% on PI3Kα (p110α/p85α).

On to `COC(=O)Nc1cc(-c2cc(-c3cccnc3C(F)(F)F)[nH]c(=O)c2)c(N)cn1` [Example 15], for which, on VPS34, the IC50 was 100 to 500 nM. For the same compound, the inhibition at 1 µM in [1] was -11%; in assay [2], -2%; in [3], 10%; at PI3K (p110α/p65α), -12%; at PI3KC2α it was -26%; at PI3Kb (p110β/p85α), -4%. Besides, the inhibition at 1 µM on PI3Kd (p110δ/p85α) is -5%; at PI3Kg (p110γ), 16%; on PI3Kα (p110α/p85α) it was -19%.

For the compound `O=C(Nc1cc(-c2cc(N3CCCC[C@@H]3C(F)(F)F)[nH]c(=O)c2)c(Cl)cn1)C1CC1` [Example 16], on VPS34, the IC50 fell in the range of 100 to 500 nM. In addition, the inhibition at 1 µM is -2% in assay [1]; -8% in assay [2]; 14% in assay [3]; -24% on PI3K (p110α/p65α); -11% at PI3KC2α; -5% at PI3Kb (p110β/p85α). The values for the inhibition at 1 µM on PI3Kd (p110δ/p85α), at PI3Kg (p110γ) and at PI3Kα (p110α/p85α) were -2%, 29% and -24%, respectively.

As for `Cc1cnc(NC(=O)C2CC2)cc1-c1cc(N2CCCC[C@@H]2C(F)(F)F)[nH]c(=O)c1` [Example 17], the half-maximal inhibitory concentration (IC50) on VPS34 is at most 100 nM. For the same compound, the inhibition at 1 µM in assay [1] was -3%; in assay [2] it was -5%; in [3] it was 6%; on PI3K (p110α/p65α), -17%; on PI3KC2α, -21%; at PI3Kb (p110β/p85α) it was -10%. For the same compound, the inhibition at 1 µM was 14% on PI3Kd (p110δ/p85α), 7% on PI3Kg (p110γ) and -15% on PI3Kα (p110α/p85α).

As for `COC(=O)Nc1cc(-c2cc(N3CCCC[C@@H]3C(F)(F)F)[nH]c(=O)c2)c(CF)cn1` [Example 18], the IC50 at VPS34 fell in the range of 100 to 500 nM. For the same compound, the inhibition at 1 µM was -1% in assay [1]; 2% in assay [2]; 16% in assay [3]; -2% on PI3K (p110α/p65α); -18% at PI3KC2α; -3% at PI3Kb (p110β/p85α). The figures for the inhibition at 1 µM on PI3Kd (p110δ/p85α), at PI3Kg (p110γ) and on PI3Kα (p110α/p85α) were 13%, -13% and -5%, respectively.

Regarding `COC(=O)Nc1cc(-c2cc(N3CCCC[C@@H]3C)[nH]c(=O)c2)c(C)cn1` [Example 20], the concentration for half-maximal inhibition (IC50) at VPS34 lay in the range of 100 to 500 nM. The inhibition at 1 µM was -5% in [1]; -3% in [2]; -11% in assay [3]; -11% on PI3K (p110α/p65α); 5% at PI3KC2α; -9% on PI3Kb (p110β/p85α). The inhibition at 1 µM at PI3Kd (p110δ/p85α) was -4%; on PI3Kg (p110γ), -10%; at PI3Kα (p110α/p85α) it was -2%.

With `Cc1cnc(NC(=O)CC2CNCC2(F)F)cc1-c1cc(N2CCCC[C@@H]2C(F)(F)F)[nH]c(=O)c1` (stereo partly shown) [Example 22], at VPS34, the IC50 was 100 to 500 nM. Further, the inhibition at 1 µM in [1] is -4%; in assay [2], -1%; in assay [3], -4%; at PI3K (p110α/p65α), -4%; on PI3KC2α it was 2%; on PI3Kb (p110β/p85α), -3%. Further, the inhibition at 1 µM on PI3Kd (p110δ/p85α) was 4%; on PI3Kg (p110γ), -8%; at PI3Kα (p110α/p85α), 3%.

Take `CNCC(=O)Nc1cc(-c2cc(N3CCCC[C@@H]3C(F)(F)F)[nH]c(=O)c2)c(C)cn1` [Example 24]: the IC50 on VPS34 fell in the range of 100 to 500 nM. Moreover, the inhibition at 1 µM is -4% in [1]; -2% in assay [2]; -17% in assay [3]; -6% at PI3K (p110α/p65α); 2% at PI3KC2α; -9% on PI3Kb (p110β/p85α). Moreover, the inhibition at 1 µM is -9% on PI3Kd (p110δ/p85α), -7% on PI3Kg (p110γ) and -1% at PI3Kα (p110α/p85α).

Consider `Cc1cnc(NC(=O)CCN(C)C)cc1-c1cc(N2CCCC[C@@H]2C(F)(F)F)[nH]c(=O)c1` [Example 25], for which the IC50 on VPS34 is 100 to 500 nM. Besides, the inhibition at 1 µM is 1% in assay [1]; -1% in assay [2]; -7% in assay [3]; 0% on PI3K (p110α/p65α); -5% on PI3KC2α; -7% on PI3Kb (p110β/p85α). The inhibition at 1 µM on PI3Kd (p110δ/p85α) was -7%; at PI3Kg (p110γ), -4%; on PI3Kα (p110α/p85α), 4%.

Broadly, the IC50 is the concentration that gives 50% inhibition.
